{"source": "patent US6797077B2", "about": "“Latex paint remover” (Pentagonal Holdings, Inc., priority 2000, dated 2004)", "format_in_all_cases": "in vivo", "key": {"[1]": {"test": "Acute oral toxicity, Federal Hazardous Substances Act 16 CFR 1500.3(c)(2)(i)", "experimental": "(§1) A cleaning composition composed of pure IBIB was tested for toxicity, skin irritation and eye irritation according to the protocol of the Federal Hazardous Substances Act, 16 CFR 1500.3(c)(2)(i), 1500.41 and 1500.42."}, "[2]": {"test": "Skin irritation, 16 CFR 1500.41 and 1500.3(c)(4)", "experimental": "as §1"}, "[3]": {"test": "Eye irritation, 16 CFR 1500.42 and 1500.3(c)(4)", "experimental": "as §1"}}, "note": "“Also recorded” adds a separate entry of the source.", "data": [{"smiles": "CC(C)COC(=O)C(C)C", "note": "[IBIB, Isobutyl isobutyrate]", "values": [{"measurement": "Acute oral toxicity conclusion", "setting": "[1]; 16 CFR 1500.3(c)(2)(i)", "value": "non-toxic; also recorded: Not considered as toxic"}, {"measurement": "Acute Oral LD50", "setting": "[1]; dose level 5,000 mg/kg", "value": "Acute Oral LD50 greater than five (5) grams per gram body weight"}, {"measurement": "Skin irritation conclusion", "setting": "[2]; 16 CFR 1500.41", "value": "not considered to be a primary skin irritant"}, {"measurement": "Primary Dermal Irritation Score (Average)", "setting": "[2]; in vivo", "value": 2.4}, {"measurement": "Eye irritation conclusion", "setting": "[3]; 16 CFR 1500.42", "value": "not considered to be a primary eye irritant"}, {"measurement": "Maximum Mean Total Score (Average)", "setting": "[3]; eye irritation", "value": 3.3}]}]}
